Broadly, the IC50 is the concentration that gives 50% inhibition.

The values that follow come from ChEMBL document CHEMBL2417438, “Preparation and antitrypanosomal activity of secochiliolide acid derivatives” (Bioorg Med Chem Lett, 2013).

Molecules are shown by their SMILES. ≈ marks a conversion by molar mass, not a printed value. Calls of active or inactive are those of the source. The rule behind the calls is not given here.

Assay [1] deals with Trypanosoma cruzi. The experiment in a line: Antiparasitic activity against epimastigotes of Trypanosoma cruzi assessed as inhibition of parasite proliferation. Format: functional, organism-based.
Assay [2] deals with Trypanosoma cruzi. The experiment in a line: Antiparasitic activity against epimastigotes of Trypanosoma cruzi assessed as inhibition of parasite proliferation at 1 to 10 ug/ml. Format: functional, organism-based.
The mark [3] stands for this setting: Trypanosoma cruzi, read-out: IC50.

In the case of `CC(C)=C1CC[C@@H](C)[C@]2(C[C@@H](c3ccoc3)OC2=O)[C@H]1CCNC(=O)OC(C)(C)C`, the IC50 in the assay on Trypanosoma cruzi [1] (setting [3]) worked out at 2 µg/mL (≈ 4.79 µM).

On to `CC(C)=C1CC[C@@H](C)[C@]2(C[C@@H](c3ccoc3)OC2=O)[C@H]1CCN=C=O`, for which, in the assay on Trypanosoma cruzi [1], the IC50 result was “Not Active”.

As to `C=C(C)[C@]12CC[C@@H](C)[C@]3(C[C@@H](c4ccoc4)OC3=O)[C@H]1CCC(=O)O2`, the IC50 in the assay on Trypanosoma cruzi [1] (setting [3]) amounted to 5 µg/mL (≈ 14.5 µM).

Turning to `CC(C)=C1CC[C@@H](C)[C@]2(C[C@@H](c3ccoc3)OC2=O)[C@H]1CCc1cc(O)ccc1O`, the IC50 in the assay with Trypanosoma cruzi [1] (setting [3]) amounted to 7 µg/mL (≈ 17.1 µM).

In the case of `CC(C)=C1CC[C@@H](C)[C@]2(C[C@@H](c3ccoc3)OC2=O)[C@H]1CCC(=O)OC(C)(C)C`, the IC50 entry in the assay on Trypanosoma cruzi [1] is “Not Active”.

`CC(C)=C1CC[C@@H](C)[C@]2(C[C@@H](c3ccoc3)OC2=O)[C@H]1CCC1=CC(=O)C=CC1=O`: the IC50 with Trypanosoma cruzi [1] (setting [3]) is 2 µg/mL (≈ 4.9 µM).

With `CC(C)=C1CC[C@@H](C)[C@]2(C[C@@H](c3ccoc3)OC2=O)[C@H]1CCNC(=O)NCC[C@H]1C(=C(C)C)CC[C@@H](C)[C@]12C[C@@H](c1ccoc1)OC2=O`, the concentration for half-maximal inhibition (IC50) in the assay with Trypanosoma cruzi [1] (setting [3]) turned out to be 5 µg/mL (≈ 7.57 µM).

For the molecule `O=C(Cn1ccnc1[N+](=O)[O-])NCc1ccccc1` [BENZNIDAZOLE], in the assay on Trypanosoma cruzi [1] (setting [3]), the IC50 stood at 2.5 µg/mL (≈ 9.61 µM).

Regarding `CC(C)=C1CC[C@@H](C)[C@]2(C[C@@H](c3ccoc3)OC2=O)[C@H]1CCNC(=O)N=[N+]=[N-]`, the IC50 in the assay with Trypanosoma cruzi [1] (setting [3]) came to 4 µg/mL (≈ 10.4 µM).

Consider `COC(=O)CC[C@@H]1[C@@]2(C[C@@H](c3ccoc3)OC2=O)[C@H](C)CC[C@@]12OC2(C)C`, for which, in the assay with Trypanosoma cruzi [1], the IC50 entry was “Not Active”.

`CC(C)=C1CC[C@@H](C)[C@]2(C[C@@H](c3ccoc3)OC2=O)[C@H]1CCC(=O)O`: the inhibition result in the assay with Trypanosoma cruzi [2] is “Active”. The IC50 in the assay on Trypanosoma cruzi [1] (setting [3]) was 2 µg/mL (≈ 5.77 µM).
